Reference: US8026218B2, “Bifunctional analgesic compounds for opioid receptor agonists and neurokinin-1 receptor antagonists” (The University of Arizona, priority 2006, dated 2011)
Like-named read-outs stand apart in the source and are kept apart here. Peptide text beside a SMILES is read from it.

What was measured:
rat NK1 (rNK1) receptor = target: T1, rat NK1 (rNK1) receptor (Rattus norvegicus, UniProt P14600); experiment: Radioligand competition binding, [3H]substance P, rNK1/CHO membranes
T1 construct: expressed in transfected cells; host or cells: CHO (rNK-1/CHO cell line from Dr. James Krause)

[1] = target: T2, human NK1 receptor (hNK1) (Homo sapiens, UniProt P25103); experiment: Radioligand competition binding, [3H]-Substance P, hNK1
T2 construct: expressed in transfected cells

[2] = target: T3, Substance P receptors (guinea pig NK1) (Cavia porcellus, UniProt P30547); experiment: Guinea pig isolated ileum (GPI) assay with substance P stimulation in presence of 1 μM naloxone; settings: for Kb: Substance P antagonist, GPI, Ke, in the presence of 1 μM naloxone; for activation at 1 µM: read-out: Substance P GPI agonist (A50), contraction relative to initial muscle contraction with KCl
T3 construct: from tissue; host or cells: guinea pig (Hartley) ileum LMMP, 1 μM naloxone present
Experimental: Testing stopped at 1 mM concentrations of the test compound.
Analysis of GPI and MVD assays. For opioid data analysis, percentage inhibition was calculated using the average tissue contraction height for 1 min preceding the addition of the agonist divided by the contraction height 3 min after exposure to the dose of agonist. […] IC50 and Emax estimates were determined by computerized nonlinear least-squares analysis (the pharmacological statistics package FlashCalc: Dr. Michael Ossipov, University of Arizona, Tucson, Ariz.). […] A50 values represent the mean of not less than 4 tissues. A50 and Emax estimates were determined by computerized nonlinear least-squares analysis (FlashCalc).

[3] = target: T4, rat μ opioid receptors (rMOR) (Rattus norvegicus, UniProt P33535); experiment: biochemical; type: biochemical; settings: Table 39; read-out: GTP binding rMOR Emax
T4 construct: expressed in transfected cells; host or cells: HN9.10 neuroblastoma cell line, pCDNA3, neomycin-selected clones

[4] = target: T5, human δ opioid receptors (hDOR) (Homo sapiens, UniProt P41143); experiment: [35S]GTP-γ-S binding assay, hDOR; type: biochemical
T5 construct: expressed in transfected cells; host or cells: HN9.10 neuroblastoma cell line, pCDNA3, neomycin-selected clones

[5] = target: T5, human δ opioid receptors (hDOR); experiment: Radioligand competition binding, [3H]DPDPE, hDOR membranes; settings: for LogIC50, hDOR, [3H]DPDPE: membranes from transfected HN9.10 cells
μ opioid receptors (GPI) = experiment: Guinea pig isolated ileum (GPI) assay, opioid agonist; set-up: GPI/LMMP Opioid(m) Agonist, % inh.: unit of the concentration uncertain;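 note: inhibition of electrically evoked contractions (0.1 Hz, 0.4 msec, supramaximal voltage) in organ baths at 37 °C, contraction height 3 min after each cumulative dose versus the 1 min before dosing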
δ opioid receptors (MVD) = target: T6, δ opioid receptors (MVD) (Mus musculus, UniProt P32300); experiment: Mouse isolated vas deferens (MVD) assay, opioid agonist
T6 construct: from tissue; host or cells: mouse (ICR) isolated vas deferens

[6] = Table 39, read-out: GTP binding hDOR Emax
[7] = Table 28, read-out: GPI/LMMP Opioid(m) Agonist (IC50; nM)
[8] = Table 39, read-out: GPI/LMMP opioid(mu) agonist (IC50; nM)
[9] = electrically stimulated isolated tissue, read-out: GPI (μ), IC50
[10] = Table 27, read-out: GTP binding hDOR EC50
[11] = Table 27, read-out: GTP binding hDOR Emax (%)
[12] = Table 39, read-out: GTP binding hDOR EC50
[13] = net total bound/basal binding × 100, read-out: Emax, hDOR, [35S]GTP-γ-S binding
[14] = read-out: EC50, hDOR, [35S]GTP-γ-S binding
[15] = LogIC50, rNK1, Substance P radioligand, membranes from transfected CHO cells
[16] = Table 39, read-out: MVD opioid(delta) agonist (IC50; nM)
[17] = IC50, rNK1, Substance P radioligand, membranes from transfected CHO cells
[18] = Table 28, read-out: MVD Opioid (d) Agonist (IC50; nM)
[19] = electrically stimulated isolated tissue, read-out: MVD (δ), IC50

T3 sequence (P30547 whole entry): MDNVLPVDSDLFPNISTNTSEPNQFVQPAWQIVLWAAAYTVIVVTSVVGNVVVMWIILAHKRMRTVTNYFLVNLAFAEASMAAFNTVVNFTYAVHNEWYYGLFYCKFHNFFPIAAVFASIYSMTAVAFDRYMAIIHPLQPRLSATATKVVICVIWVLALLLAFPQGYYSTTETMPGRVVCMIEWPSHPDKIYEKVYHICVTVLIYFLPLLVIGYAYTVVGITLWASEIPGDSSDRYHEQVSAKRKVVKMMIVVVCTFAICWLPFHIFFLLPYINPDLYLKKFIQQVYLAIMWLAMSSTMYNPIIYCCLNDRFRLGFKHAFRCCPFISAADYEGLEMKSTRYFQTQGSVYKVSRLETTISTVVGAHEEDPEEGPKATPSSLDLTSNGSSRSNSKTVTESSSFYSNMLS
T2 sequence (P25103 whole entry): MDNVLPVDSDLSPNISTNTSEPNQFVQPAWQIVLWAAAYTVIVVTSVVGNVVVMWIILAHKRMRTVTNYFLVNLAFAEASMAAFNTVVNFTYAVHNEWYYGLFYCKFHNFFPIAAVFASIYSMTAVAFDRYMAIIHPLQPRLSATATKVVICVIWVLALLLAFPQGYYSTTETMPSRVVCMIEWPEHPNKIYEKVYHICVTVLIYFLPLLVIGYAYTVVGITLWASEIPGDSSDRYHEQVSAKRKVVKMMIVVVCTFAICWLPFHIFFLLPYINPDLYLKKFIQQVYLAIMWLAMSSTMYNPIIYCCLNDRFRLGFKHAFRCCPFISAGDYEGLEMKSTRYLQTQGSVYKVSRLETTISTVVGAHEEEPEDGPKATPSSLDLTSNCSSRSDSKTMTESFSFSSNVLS
T1 sequence (P14600 whole entry): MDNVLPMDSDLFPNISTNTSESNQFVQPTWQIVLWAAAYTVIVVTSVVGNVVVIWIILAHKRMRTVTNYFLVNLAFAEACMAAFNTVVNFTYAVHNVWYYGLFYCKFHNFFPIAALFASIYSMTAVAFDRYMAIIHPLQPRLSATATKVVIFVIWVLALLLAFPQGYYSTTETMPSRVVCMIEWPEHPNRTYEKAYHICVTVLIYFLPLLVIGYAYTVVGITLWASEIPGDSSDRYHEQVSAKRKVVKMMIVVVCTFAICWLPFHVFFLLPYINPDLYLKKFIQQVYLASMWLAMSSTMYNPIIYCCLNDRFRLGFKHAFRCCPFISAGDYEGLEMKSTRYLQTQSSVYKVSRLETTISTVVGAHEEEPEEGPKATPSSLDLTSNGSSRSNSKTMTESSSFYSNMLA
T6 sequence (P32300 whole entry): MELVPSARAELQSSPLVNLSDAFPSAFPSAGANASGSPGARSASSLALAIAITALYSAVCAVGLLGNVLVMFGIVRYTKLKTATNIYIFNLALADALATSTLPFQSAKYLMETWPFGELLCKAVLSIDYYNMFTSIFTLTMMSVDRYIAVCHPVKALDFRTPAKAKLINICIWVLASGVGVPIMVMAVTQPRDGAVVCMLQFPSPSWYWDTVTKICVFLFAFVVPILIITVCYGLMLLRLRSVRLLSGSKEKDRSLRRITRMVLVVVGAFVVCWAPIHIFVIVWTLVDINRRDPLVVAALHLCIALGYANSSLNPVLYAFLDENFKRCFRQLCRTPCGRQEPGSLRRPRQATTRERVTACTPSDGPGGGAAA
T4 sequence (P33535 whole entry): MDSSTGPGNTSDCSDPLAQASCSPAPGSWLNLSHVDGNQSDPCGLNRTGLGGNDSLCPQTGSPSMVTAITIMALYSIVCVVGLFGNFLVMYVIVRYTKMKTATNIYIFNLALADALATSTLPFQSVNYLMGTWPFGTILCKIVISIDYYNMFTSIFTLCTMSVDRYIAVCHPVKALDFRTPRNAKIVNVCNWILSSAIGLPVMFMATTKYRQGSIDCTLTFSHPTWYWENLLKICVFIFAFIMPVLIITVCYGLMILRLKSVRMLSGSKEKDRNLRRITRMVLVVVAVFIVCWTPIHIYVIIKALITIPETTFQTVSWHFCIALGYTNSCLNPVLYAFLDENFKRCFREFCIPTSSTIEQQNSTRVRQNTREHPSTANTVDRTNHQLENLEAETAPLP
T5 sequence (P41143 whole entry): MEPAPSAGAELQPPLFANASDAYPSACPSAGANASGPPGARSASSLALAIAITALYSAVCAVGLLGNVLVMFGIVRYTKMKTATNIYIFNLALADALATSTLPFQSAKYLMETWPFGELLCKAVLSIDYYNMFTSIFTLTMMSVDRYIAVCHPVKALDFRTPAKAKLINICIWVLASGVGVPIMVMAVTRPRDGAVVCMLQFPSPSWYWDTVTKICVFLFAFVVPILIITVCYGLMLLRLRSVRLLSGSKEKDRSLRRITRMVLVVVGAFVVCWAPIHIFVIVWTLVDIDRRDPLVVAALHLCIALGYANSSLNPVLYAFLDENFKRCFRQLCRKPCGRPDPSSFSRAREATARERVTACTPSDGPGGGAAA

CC(C)C[C@H](NC(=O)[C@@H]1CCCN1C(=O)[C@H](Cc1ccccc1)NC(=O)CNC(=O)[C@@H](C)NC(=O)[C@@H](N)Cc1ccc(O)cc1)C(=O)N[C@@H](Cc1c[nH]c2ccccc12)C(=O)OCc1cc(C(F)(F)F)cc(C(F)(F)F)c1 [TY001, H-Tyr-DAla-Gly-Phe-Pro-Leu-Trp-O-3,5-Bzl(CF3)2]
Ki (rat NK1 (rNK1) receptor; Affinity rNK1 (Ki; nM), Table 39): 1.56 nM | IC50 (rat NK1 (rNK1) receptor; LogIC50, rNK1, [3H]Substance P, Table 6, logarithm of IC50 (negative), CHO cell membranes): 5.01 nM | Ki (rat NK1 (rNK1) receptor; read-out: Ki, rNK1): 1.6 nM | IC50 [1]: 5.01 pM | Ki [1]: 2.3 pM | species difference between affinities at rNK1 and hNK1 ([1]; Ki rNK1 vs Ki hNK1): 700 fold | Kb [2]: 3.6 ± 1.1 nM

CC(C)C[C@H](NC(=O)[C@@H]1CCCN1C(=O)[C@H](Cc1ccccc1)NC(=O)[C@H](Cc1ccccc1)NC(=O)CNC(=O)[C@@H](C)NC(=O)[C@@H](N)Cc1ccc(O)cc1)C(=O)N[C@@H](Cc1c[nH]c2ccccc12)C(=O)OCc1ccccc1 [TY014] (HELM PEPTIDE1{Y.[dA].G.F.F.P.L.W.[c1ccc(CO[*:1])cc1]}$$$$V2.0; N-terminus assumed)
Emax [3]: 72.3% | Emax [4, 6]: 137% | Ki [5]: 11.5 nM

CCCC[C@H](NC(=O)[C@H](Cc1ccccc1)NC(=O)CNC(=O)[C@@H](C)NC(=O)[C@@H](N)Cc1ccc(O)cc1)C(=O)N1CCC[C@H]1C(=O)N[C@@H](CC(C)C)C(=O)N[C@@H](Cc1c[nH]c2ccccc12)C(=O)OCc1cc(C(F)(F)F)cc(C(F)(F)F)c1 [TY018, H-Tyr-D-Ala-Gly-Phe-Nle-Pro-Leu-Trp-O-3,5-Bzl(CF3)2]
IC50 (μ opioid receptors (GPI); [7]): 372 nM | IC50 (μ opioid receptors (GPI); [8]): 372 nM | IC50 (μ opioid receptors (GPI); [9]): 372 ± 65 nM | LogEC50, hDOR, [35S]GTP-γ-S binding [4]: −8.40 ± 0.11 | EC50 [4, 10]: 4 nM | Emax [4, 11]: 131% | EC50 [4, 12]: 4 nM | Emax [4, 6]: 131% | Emax [4, 13]: 129% | EC50 [4, 14]: 4 nM | LogIC50, hDOR, [3H]DPDPE [5]: −8.42 ± 0.15 | Ki (rat NK1 (rNK1) receptor; Ki, rNK1, text): 14.8 nM | IC50 (rat NK1 (rNK1) receptor; [15]): 13.5 nM | Kb [2]: 7.9 ± 1.9 nM | activation at 1 µM [2]: 0% | IC50 (δ opioid receptors (MVD)): 16.8 ± 2.4 nM | IC50 (δ opioid receptors (MVD); [16]): 16.8 nM

CCCC[C@@H](C(=O)N1CCC[C@H]1C(=O)N[C@@H](CC(C)C)C(=O)N[C@@H](Cc1c[nH]c2ccccc12)C(=O)OCc1cc(C(F)(F)F)cc(C(F)(F)F)c1)N(C)C(=O)[C@H](Cc1ccccc1)NC(=O)CNC(=O)[C@@H](C)NC(=O)[C@@H](N)Cc1ccc(O)cc1 [TY019, H-Tyr-D-Ala-Gly-Phe-N-Me-Nle-Pro-Leu-Trp-O-3,5-Bzl(CF3)2]
GPI/LMMP Opioid(m) Agonist, % inh. (μ opioid receptors (GPI); Table 28, at 1 (unit uncertain)): 12% inh. at 1 mM | GPI/LMMP opioid(mu) agonist, % (μ opioid receptors (GPI); Table 39, concentration not given): 11.90% | GPI (μ), effect at single concentration (μ opioid receptors (GPI); at 1 μM): 12% at 1 μM^b | LogEC50, hDOR, [35S]GTP-γ-S binding [4]: −6.44 ± 0.27 | EC50 [4, 14]: 364 nM | Emax ([4]; read-out: Emax, hDOR, [35S]GTP-γ-S binding): 316% | EC50 ([4]; read-out: GTP binding hDOR EC50): 364 nM | Emax ([4]; read-out: GTP binding hDOR Emax): 283% | Emax ([4]; read-out: GTP binding hDOR Emax (%)): 283% | LogIC50, hDOR, [3H]DPDPE [5]: −6.79 ± 0.13 | IC50 (rat NK1 (rNK1) receptor; [17]): 135 nM | IC50 (rat NK1 (rNK1) receptor; [15]): 112 nM | IC50 [2]: 4.6 nM | Kb [2]: 4.6 ± 1.2 nM | GPI/LMMP SP Agonist, % inh. ([2]; Table 28): 2% inh. at 1 mM | GPI/LMMP SP Agonist, % @ 1 uM ([2]; Table 39, @ 1 uM): 1.6%@ 1 uM | activation at 1 µM [2]: 2% | IC50 (δ opioid receptors (MVD); [18]): 188 nM | IC50 (δ opioid receptors (MVD); [16]): 188 nM | IC50 (δ opioid receptors (MVD); [19]): 188 ± 21 nM

CC(C)C[C@H](NC(=O)[C@@H]1CCCN1C(=O)[C@H](CC[S+](C)[O-])NC(=O)[C@H](Cc1ccccc1)NC(=O)CNC(=O)[C@@H](C)NC(=O)[C@@H](N)Cc1ccc(O)cc1)C(=O)N[C@@H](Cc1c[nH]c2ccccc12)C(=O)OCc1cc(C(F)(F)F)cc(C(F)(F)F)c1 (stereo partly drawn) [TY023, H-Tyr-D-Ala-Gly-Phe-Met(O)-Pro-Leu-Trp-O-3,5-Bzl(CF3)2]
IC50 (μ opioid receptors (GPI); [7]): 154 nM | IC50 (μ opioid receptors (GPI); [8]): 154 nM | IC50 (μ opioid receptors (GPI); [9]): 154 nM | LogEC50, hDOR, [35S]GTP-γ-S binding [4]: −8.73 ± 0.20 | EC50 [4, 10]: 1.8 nM | Emax [4, 11]: 52.8% | EC50 [4, 12]: 1.8 nM | Emax [4, 6]: 52.8% | Emax [4, 13]: 53% | EC50 [4, 14]: 1.8 nM | LogIC50, hDOR, [3H]DPDPE [5]: −7.92 ± 0.04 | Ki ([5]; read-out: Ki, hDOR, [3H]DPDPE): 4.8 nM | IC50 (rat NK1 (rNK1) receptor; [17]): 54.5 nM | Ki (rat NK1 (rNK1) receptor; Ki, rNK1, text): 54.5 nM | Ki (rat NK1 (rNK1) receptor; Table 39, read-out: Affinity rNK1 (Ki; nM)): 0.2 nM | Kb [2]: 7.8 ± 4 nM | IC50 (δ opioid receptors (MVD); [18]): 33 nM | IC50 (δ opioid receptors (MVD); [16]): 33 nM | IC50 (δ opioid receptors (MVD); [19]): 33 nM

CSCC[C@H](NC(=O)[C@H](Cc1ccccc1)NC(=O)CNC(=O)[C@@H](C)NC(=O)[C@@H](N)Cc1ccc(O)cc1)C(=O)N1CCC[C@H]1C(=O)N[C@@H](CC(C)C)C(=O)N[C@@H](Cc1c[nH]c2ccccc12)C(=O)OCc1ccccc1 [TY029]
Emax [3]: 133% | IC50 (μ opioid receptors (GPI); [8]): 22.2 nM | EC50 [4, 12]: 3.4 nM | Emax [4, 6]: 98% | Ki [5]: 1.3 nM | IC50 (δ opioid receptors (MVD)): 7.62 nM

CSCC[C@H](NC(=O)[C@H](Cc1ccccc1)NC(=O)CNC(=O)[C@@H](C)NC(=O)[C@@H](N)Cc1ccc(O)cc1)C(=O)N1CCC[C@H]1C(=O)N[C@@H](CC(C)C)C(=O)N[C@@H](Cc1c[nH]c2ccccc12)C(=O)O [TY043]
Emax [3]: 36% | IC50 (μ opioid receptors (GPI); [8]): 272 nM | Emax [4, 6]: 62% | Ki [5]: 1.1 nM | GPI/LMMP SP antagonist (Ke; nM) ([2]; Table 39): no shift | IC50 (δ opioid receptors (MVD)): 8.18 nM
